# Assay results taken from PMC4032265 (PLoS ONE, 2014).
# Where “and” joins values, the source holds several entries; their conditions need not be identical. Identical values can stand only once.
# Key:
# GABAA receptor = experiment: PDSP radioligand binding, GABAA; conditions: single concentration 10 µM
# α2C adrenergic receptor = biological target: T1, α2C adrenergic receptor (Homo sapiens, UniProt P18825); experiment: PDSP radioligand binding, α2C; conditions: read-out: % inhibition at 10 µM; single concentration 10 µM
# T1 sequence (P18825 1-462): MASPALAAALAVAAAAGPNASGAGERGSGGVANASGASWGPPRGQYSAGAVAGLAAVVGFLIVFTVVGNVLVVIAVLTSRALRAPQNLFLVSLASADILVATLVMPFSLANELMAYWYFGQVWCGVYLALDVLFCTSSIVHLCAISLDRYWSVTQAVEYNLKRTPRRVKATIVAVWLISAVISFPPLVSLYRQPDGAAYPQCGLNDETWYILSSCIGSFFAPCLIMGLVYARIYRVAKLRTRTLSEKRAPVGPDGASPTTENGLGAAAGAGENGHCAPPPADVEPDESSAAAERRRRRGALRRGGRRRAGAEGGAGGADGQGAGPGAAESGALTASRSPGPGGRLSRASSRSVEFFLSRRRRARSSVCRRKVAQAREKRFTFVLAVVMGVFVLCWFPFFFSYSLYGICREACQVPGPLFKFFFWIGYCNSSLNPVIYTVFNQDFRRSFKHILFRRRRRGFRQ
# D3 dopaminergic receptor = D3 dopaminergic receptor (Homo sapiens, UniProt P35462); experiment: PDSP radioligand binding, D3; conditions: read-out: % inhibition at 10 µM; single concentration 10 µM
# Chain of D3 dopaminergic receptor (P35462 whole entry): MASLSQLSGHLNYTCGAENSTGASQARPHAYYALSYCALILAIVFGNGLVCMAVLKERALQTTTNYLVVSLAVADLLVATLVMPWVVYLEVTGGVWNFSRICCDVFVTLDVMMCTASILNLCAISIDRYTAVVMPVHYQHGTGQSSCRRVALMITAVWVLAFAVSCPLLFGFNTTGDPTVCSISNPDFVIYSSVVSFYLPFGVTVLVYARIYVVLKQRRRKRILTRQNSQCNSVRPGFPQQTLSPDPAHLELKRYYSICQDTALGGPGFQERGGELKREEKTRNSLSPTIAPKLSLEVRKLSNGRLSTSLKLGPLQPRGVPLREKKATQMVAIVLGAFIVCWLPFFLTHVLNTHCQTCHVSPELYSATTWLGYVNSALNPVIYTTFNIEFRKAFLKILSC
# [1] = biological target: 5HT1B serotonergic receptor (Homo sapiens, UniProt P28222); experiment: PDSP radioligand binding, 5HT1B; conditions: read-out: % inhibition at 10 µM; single concentration 10 µM
# Chain of 5HT1B serotonergic receptor (P28222 whole entry): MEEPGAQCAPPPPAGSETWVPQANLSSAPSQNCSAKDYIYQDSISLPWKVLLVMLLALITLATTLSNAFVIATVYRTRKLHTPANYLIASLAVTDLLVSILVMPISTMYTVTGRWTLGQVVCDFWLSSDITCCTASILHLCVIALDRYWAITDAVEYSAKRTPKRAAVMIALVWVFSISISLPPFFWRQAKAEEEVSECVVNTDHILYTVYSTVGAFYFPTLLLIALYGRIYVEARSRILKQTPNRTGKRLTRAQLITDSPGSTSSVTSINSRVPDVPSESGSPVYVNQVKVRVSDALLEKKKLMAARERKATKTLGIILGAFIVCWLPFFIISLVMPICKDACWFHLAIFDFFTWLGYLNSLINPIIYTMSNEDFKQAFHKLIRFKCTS
# β3 adrenergic receptor = β3 adrenergic receptor (Homo sapiens, UniProt P13945); experiment: PDSP radioligand binding, β3; conditions: read-out: % inhibition at 10 µM; single concentration 10 µM
# Chain of β3 adrenergic receptor (P13945 whole entry): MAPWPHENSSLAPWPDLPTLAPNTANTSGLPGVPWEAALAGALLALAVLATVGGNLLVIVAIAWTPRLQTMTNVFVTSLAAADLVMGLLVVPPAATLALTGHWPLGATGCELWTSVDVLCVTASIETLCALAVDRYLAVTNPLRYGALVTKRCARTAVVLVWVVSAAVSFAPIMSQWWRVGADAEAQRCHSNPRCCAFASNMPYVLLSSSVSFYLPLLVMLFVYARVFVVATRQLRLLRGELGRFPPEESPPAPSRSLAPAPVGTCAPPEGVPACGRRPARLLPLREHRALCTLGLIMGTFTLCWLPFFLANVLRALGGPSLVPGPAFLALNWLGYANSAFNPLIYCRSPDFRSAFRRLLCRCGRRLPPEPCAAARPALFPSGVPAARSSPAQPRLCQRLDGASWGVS
# α1A adrenergic receptor = biological target: T2, α1A adrenergic receptor (Homo sapiens, UniProt P35348); experiment: PDSP radioligand binding, α1A; conditions: read-out: % inhibition at 10 µM; single concentration 10 µM
# T2 sequence (P35348 1-466): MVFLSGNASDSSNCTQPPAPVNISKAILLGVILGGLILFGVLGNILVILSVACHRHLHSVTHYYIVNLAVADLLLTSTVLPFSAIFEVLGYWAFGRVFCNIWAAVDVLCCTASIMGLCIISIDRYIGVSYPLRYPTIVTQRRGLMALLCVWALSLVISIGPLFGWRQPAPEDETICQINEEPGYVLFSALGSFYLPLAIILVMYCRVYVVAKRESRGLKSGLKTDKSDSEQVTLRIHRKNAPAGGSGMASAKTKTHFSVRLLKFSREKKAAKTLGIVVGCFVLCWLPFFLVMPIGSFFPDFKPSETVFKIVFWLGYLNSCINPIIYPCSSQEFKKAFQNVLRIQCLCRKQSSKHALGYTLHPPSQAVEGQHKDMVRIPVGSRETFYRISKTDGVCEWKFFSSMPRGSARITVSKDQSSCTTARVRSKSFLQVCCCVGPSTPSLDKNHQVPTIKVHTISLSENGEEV
# [2] = biological target: 5HT1D serotonergic receptor (Homo sapiens, UniProt P28221); experiment: PDSP radioligand binding, 5HT1D; conditions: read-out: % inhibition at 10 µM; single concentration 10 µM
# Chain of 5HT1D serotonergic receptor (P28221 whole entry): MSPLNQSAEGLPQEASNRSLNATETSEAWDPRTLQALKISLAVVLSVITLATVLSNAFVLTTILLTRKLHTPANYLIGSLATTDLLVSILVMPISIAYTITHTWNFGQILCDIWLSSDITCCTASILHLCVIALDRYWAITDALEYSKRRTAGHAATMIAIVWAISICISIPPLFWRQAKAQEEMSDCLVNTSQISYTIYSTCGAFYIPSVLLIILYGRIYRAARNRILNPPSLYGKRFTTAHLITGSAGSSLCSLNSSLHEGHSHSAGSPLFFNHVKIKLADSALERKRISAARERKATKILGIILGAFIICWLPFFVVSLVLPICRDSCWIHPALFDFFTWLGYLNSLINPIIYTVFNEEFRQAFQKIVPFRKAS
# [3] = biological target: 5HT2B serotonergic receptor (Homo sapiens, UniProt P41595); experiment: PDSP radioligand binding, 5HT2B
# Chain of 5HT2B serotonergic receptor (P41595 whole entry): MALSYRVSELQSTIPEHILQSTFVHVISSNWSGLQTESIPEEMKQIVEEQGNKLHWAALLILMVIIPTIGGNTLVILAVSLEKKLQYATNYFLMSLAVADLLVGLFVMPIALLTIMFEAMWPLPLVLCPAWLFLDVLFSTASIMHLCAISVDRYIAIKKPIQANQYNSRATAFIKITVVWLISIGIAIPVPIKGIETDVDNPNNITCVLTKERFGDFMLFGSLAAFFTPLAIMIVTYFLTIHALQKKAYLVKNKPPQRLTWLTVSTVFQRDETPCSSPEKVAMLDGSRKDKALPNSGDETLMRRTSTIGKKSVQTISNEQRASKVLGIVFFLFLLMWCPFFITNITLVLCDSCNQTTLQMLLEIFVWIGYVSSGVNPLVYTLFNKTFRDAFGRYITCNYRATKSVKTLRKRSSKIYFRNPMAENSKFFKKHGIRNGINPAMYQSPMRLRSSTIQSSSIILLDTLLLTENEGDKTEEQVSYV
# [4] = biological target: H1 histaminergic receptor (Homo sapiens, UniProt P35367); experiment: PDSP radioligand binding, H1; conditions: read-out: % inhibition at 10 µM; single concentration 10 µM
# Chain of H1 histaminergic receptor (P35367 whole entry): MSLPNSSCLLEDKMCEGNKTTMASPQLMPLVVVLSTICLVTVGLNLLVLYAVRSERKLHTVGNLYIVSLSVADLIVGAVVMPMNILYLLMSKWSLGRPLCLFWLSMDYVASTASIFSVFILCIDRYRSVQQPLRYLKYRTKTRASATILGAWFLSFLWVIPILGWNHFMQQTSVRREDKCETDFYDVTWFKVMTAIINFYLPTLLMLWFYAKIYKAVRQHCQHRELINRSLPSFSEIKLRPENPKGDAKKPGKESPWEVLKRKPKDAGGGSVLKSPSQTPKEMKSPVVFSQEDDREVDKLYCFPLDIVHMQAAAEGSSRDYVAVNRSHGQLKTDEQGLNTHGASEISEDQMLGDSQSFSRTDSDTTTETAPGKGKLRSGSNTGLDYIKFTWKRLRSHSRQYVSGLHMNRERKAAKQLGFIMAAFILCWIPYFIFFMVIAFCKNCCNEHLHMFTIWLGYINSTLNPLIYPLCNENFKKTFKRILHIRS
# 5HT3 ion channels = biological target: T3, 5HT3 ion channels (Homo sapiens, UniProt P46098); experiment: PDSP radioligand binding, 5HT3 ion channel; conditions: read-out: % inhibition at 10 µM; single concentration 10 µM
# T3 sequence (P46098 24-478): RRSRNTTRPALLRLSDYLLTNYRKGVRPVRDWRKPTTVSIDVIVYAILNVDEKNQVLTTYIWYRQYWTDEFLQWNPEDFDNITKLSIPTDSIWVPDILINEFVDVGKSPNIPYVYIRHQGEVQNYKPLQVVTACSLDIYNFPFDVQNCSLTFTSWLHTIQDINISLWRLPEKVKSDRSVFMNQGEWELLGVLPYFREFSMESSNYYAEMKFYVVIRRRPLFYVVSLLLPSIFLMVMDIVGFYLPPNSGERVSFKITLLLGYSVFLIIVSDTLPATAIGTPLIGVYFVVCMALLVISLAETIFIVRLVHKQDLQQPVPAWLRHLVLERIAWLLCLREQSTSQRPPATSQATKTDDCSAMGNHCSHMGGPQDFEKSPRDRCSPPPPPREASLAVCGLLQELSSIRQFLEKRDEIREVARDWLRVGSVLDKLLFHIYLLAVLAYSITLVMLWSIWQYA
# µ opioid receptor = µ opioid receptor (Homo sapiens, UniProt P35372); experiment: PDSP radioligand binding, µ opioid; conditions: read-out: % inhibition at 10 µM; single concentration 10 µM
# Chain of µ opioid receptor (P35372 whole entry): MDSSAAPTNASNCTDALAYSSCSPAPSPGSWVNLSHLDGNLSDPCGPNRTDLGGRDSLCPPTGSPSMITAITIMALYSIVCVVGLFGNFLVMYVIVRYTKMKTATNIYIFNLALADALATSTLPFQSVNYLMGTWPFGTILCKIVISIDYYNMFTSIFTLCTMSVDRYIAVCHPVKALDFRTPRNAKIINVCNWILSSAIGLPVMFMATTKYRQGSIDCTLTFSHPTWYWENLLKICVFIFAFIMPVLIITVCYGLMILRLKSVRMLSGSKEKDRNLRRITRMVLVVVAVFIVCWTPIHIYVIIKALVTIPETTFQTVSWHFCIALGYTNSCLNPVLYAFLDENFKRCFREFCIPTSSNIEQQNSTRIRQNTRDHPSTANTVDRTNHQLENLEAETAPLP
# [5] = biological target: T4, M2 muscarinic acetylcholine receptor (Homo sapiens, UniProt P08172); experiment: PDSP radioligand binding, M2; conditions: read-out: % inhibition at 10 µM; single concentration 10 µM
# T4 sequence (P08172 1-466): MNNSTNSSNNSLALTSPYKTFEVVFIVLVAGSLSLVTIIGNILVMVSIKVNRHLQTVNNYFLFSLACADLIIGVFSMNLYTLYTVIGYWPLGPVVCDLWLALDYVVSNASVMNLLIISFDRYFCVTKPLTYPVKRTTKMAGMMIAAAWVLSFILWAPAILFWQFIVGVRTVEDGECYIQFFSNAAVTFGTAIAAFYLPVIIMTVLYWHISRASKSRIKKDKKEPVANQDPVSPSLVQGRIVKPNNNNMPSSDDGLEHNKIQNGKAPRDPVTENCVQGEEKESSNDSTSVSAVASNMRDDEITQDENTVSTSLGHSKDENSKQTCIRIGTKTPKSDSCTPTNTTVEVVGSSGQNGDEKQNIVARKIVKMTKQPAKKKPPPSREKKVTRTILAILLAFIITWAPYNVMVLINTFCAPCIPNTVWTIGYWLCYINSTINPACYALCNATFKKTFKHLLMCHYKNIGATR
# β1 adrenergic receptor = β1 adrenergic receptor (Homo sapiens, UniProt P08588); experiment: PDSP radioligand binding, β1; conditions: read-out: % inhibition at 10 µM; single concentration 10 µM
# Chain of β1 adrenergic receptor (P08588 whole entry, species assumed): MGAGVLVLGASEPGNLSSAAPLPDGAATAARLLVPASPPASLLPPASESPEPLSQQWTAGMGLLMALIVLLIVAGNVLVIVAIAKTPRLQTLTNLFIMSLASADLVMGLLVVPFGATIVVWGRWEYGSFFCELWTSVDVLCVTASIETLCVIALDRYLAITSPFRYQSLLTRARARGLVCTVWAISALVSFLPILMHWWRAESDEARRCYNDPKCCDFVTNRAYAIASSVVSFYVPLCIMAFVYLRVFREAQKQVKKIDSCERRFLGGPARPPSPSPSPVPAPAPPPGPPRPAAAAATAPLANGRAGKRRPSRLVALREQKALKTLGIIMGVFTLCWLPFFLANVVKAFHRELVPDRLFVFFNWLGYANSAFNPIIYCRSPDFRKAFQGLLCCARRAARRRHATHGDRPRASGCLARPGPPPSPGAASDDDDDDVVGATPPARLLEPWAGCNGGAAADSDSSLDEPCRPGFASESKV
# D4 dopaminergic receptor = biological target: T5, D4 dopaminergic receptor (Homo sapiens, UniProt P21917); experiment: PDSP radioligand binding, D4; conditions: read-out: % inhibition at 10 µM; single concentration 10 µM
# T5 sequence (P21917 1-419): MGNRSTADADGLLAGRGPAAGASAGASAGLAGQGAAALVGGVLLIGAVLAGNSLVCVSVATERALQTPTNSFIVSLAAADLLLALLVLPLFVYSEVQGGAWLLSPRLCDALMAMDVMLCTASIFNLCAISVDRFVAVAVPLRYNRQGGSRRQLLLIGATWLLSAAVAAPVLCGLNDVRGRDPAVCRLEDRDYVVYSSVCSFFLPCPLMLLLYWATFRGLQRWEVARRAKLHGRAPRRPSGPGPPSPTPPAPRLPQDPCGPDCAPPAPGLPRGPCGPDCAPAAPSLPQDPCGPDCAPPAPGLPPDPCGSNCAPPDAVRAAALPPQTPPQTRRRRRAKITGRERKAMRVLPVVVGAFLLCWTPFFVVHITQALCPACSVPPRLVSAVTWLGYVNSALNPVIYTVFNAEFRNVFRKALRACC
smiles,measurement,setting,value
O[C@@H]1[C@H](O)[C@@H]2C[C@@H]2[C@H]1n1cnc2c(NC(C3CC3)C3CC3)nc(Cl)nc21 [Compound 10],% inhibition at 10 µM,GABAA receptor,11%
same,inhibition at 10 µM,α2C adrenergic receptor,0%
same,inhibition at 10 µM,D3 dopaminergic receptor,8%
same,inhibition at 10 µM,[1],0%
same,inhibition at 10 µM,β3 adrenergic receptor,0%
same,inhibition at 10 µM,α1A adrenergic receptor,1%
same,inhibition at 10 µM,[2],18%
same,Ki,"[3]; full concentration-response curves, n = 3-6 unless noted",0.64 µM and 0.641 µM
same,inhibition at 10 µM,[3]; read-out: % inhibition at 10 µM,47%
same,inhibition at 10 µM,[4],0%
same,inhibition at 10 µM,5HT3 ion channels,3%
same,inhibition at 10 µM,µ opioid receptor,0%
same,inhibition at 10 µM,[5],15%
same,inhibition at 10 µM,β1 adrenergic receptor,4%
same,inhibition at 10 µM,D4 dopaminergic receptor,0%
